Results taken from patent publication US20110207745A1 (priority 2009, published 2011).
Counter-ions that a name gives are not always drawn. Like-named read-outs stand apart in the source and are kept apart here.

Tests used:
[1] = Solubility in simulated biological media; type: physicochemical; conditions: mean ± SD, n = 2
From the text: Solubility and Dissolution Rate Data.
Solubility and Dissolution Rate Data. […]

[2] = Intrinsic dissolution rate in simulated biological media; type: physicochemical
Description: Intrinsic dissolution rate is determined at 37° C. using a Distek Dissolution System model 5100A with a sample size of approximately 200 mg (0.5 cm^2 disc) and 500 mL dissolution medium. The paddle speed is set to 500 rpm and the paddle height to approximately 2.54 cm above the disc surface. The concentration of sample in solution is determined by HPLC.

[3] = Description: Stress Experiments. Solids are stressed under different temperature or relative humidity (RH) environments for a measured time period. Specific RH values are achieved by placing the sample inside sealed chambers containing saturated salt solutions, as known in the art. The salt solutions are selected and prepared following an ASTM standard procedure. Samples are analyzed by XRPD immediately after removal from the stress environment.
Analyses are carried out on an Agilent® model 1100 high performance liquid chromatograph using gradient elution on a reversed phase column utilizing ultraviolet (UV) detection. Approximately 25 mg of the sample is weighed accurately and dissolved in methanol/water/trifluoroacetic acid (35:65:0.05) to a volume of 50 mL. The sample solution is analysed using the conditions specified below:
The content of the drug and related substances are quantified by area (%).
Chemical Stability. The chemical stability of Form I of the mono-HCl salt of Compound A1 was assessed by stressing the material at various temperature/relative humidity/light conditions, then analyzing by HPLC.
Chemical Stability Data. The chemical stability of a sample of Form I of the sesquifumarate salt of Compound A1 was assessed by stressing the material at various temperature/relative humidity/light conditions, then analyzing by HPLC.

[4] = Plasma exposure of efficacious doses in rodents; type: in vivo; conditions: separate tests of anxiolysis and antidepressant activity
[5] = type: physicochemical; conditions: water vapor sorption, typical laboratory humidity (55% RH)
Description: Data are collected on a VTI SGA-100 moisture balance system. For sorption isotherms, a sorption range of about 0% to about 90% relative humidity (RH) and a desorption range of about 90 to about 0% RH in 10% RH increments are used for analysis. The samples are not dried prior to analysis. Equilibrium criteria used for analysis are less than 0.0100% weight change in 5 minutes with a maximum equilibration time of 3 hours if the weight criterion is not met. Data are not corrected for the initial moisture content of the samples.
The amorphous material was placed into preset RH conditions (50% and 75% RH) for 24 hours to check dynamic moisture absorption as well as deliquescence.

[6] = 0.1M phosphate buffer, initial pH 7.5
[7] = FaSSIF (fasted-state simulated intestinal fluid), initial pH 6.51
[8] = FeSSIF (fed-state simulated intestinal fluid), initial pH 5.03
[9] = SGF (simulated gastric fluid), initial pH 1.3
[10] = Ultraviolet light, 25° C./60% RH, 2x ICH (2 days), stored open
[11] = Ultraviolet light, 25° C./60% RH, 3x ICH (3 days), stored open
[12] = Ultraviolet light, 25° C./60% RH, ICH (1 day), stored open
[13] = White light, 25° C./60%, ICH (7 days), stored open

In the case of `CCN(CC)C(=O)c1ccc([C@H](c2cccc(N)c2)N2CCN(Cc3ccc(F)cc3)CC2)cc1` [Form I of the sesquifumarate salt of Compound A1] [4-{(R)-(3-aminophenyl)[4-(4-fluorobenzyl)piperazin-1-yl]methyl}-N,N-diethylbenzamide], the “Solubility, 3 hr” value [1, 6] is reported as 180 µg/mL, the “Solubility, 24 hr” value [1, 6] is reported as 120 µg/mL and the “Solubility, 3 hr” value [1, 7] is reported as 4400 µg/mL. For the same compound, the “Solubility, 24 hr” value [1, 7] was 4130 µg/mL, the “Solubility, 3 hr” value [1, 8] was 2540 µg/mL and the “Solubility, 24 hr” value [1, 8] was 2660 µg/mL. The “Solubility, 3 hr” value [1, 9] was 17400 µg/mL, the “Solubility, 24 hr” value [1, 9] was 17100 µg/mL and the “IDR (intrinsic dissolution rate)” value ([2]; FaSSIF, initial pH 6.51, mean ± SD, n = 2) was 553 μg/min/cm^2. The “IDR (intrinsic dissolution rate)” value ([2]; FaSSIF, initial pH 6.51, mean ± SD, n = 2, listed as Compound A1 Sesquifumarate Salt) was 553 ± 68.9 μg/min/cm^2, the “IDR (intrinsic dissolution rate)” value ([2]; FeSSIF, initial pH 5.03, mean ± SD, n = 2) was 33.5 μg/min/cm^2 and the “IDR (intrinsic dissolution rate)” value ([2]; FeSSIF, initial pH 5.03, mean ± SD, n = 2, listed as Compound A1 Sesquifumarate Salt) was 33.5 ± 1.15 μg/min/cm^2. For the same compound, the “IDR (intrinsic dissolution rate)” value ([2]; SGF, initial pH 1.3) was “too soluble to permit determination of its IDR”, the “% Purity (after challenge)” value ([3]; 25° C./60% RH, 7 days) was 99.6% and the “% Purity (reference material)” value ([3]; 25° C./60% RH, 7 days) was 104.0%. The “% Purity (after challenge)” value ([3]; 40° C./75% RH, 7 days) was 99.5%, the “% Purity (reference material)” value ([3]; 40° C./75% RH, 7 days) was 103.5% and the “% Purity after 60° C./80% RH, 2 wks” value ([3]; 60° C./80% RH, 2 weeks, HPLC area %) was 86.5%. The “% Purity after 60° C./80% RH, 4 wks” value ([3]; 60° C./80% RH, 4 weeks, HPLC area %) was 80.3%, the “% Purity after 80° C., 2 wks” value ([3]; 80° C., 2 weeks, HPLC area %) was 91.8% and the “% Purity after 80° C., 4 wks” value ([3]; 80° C., 4 weeks, HPLC area %) was 86.1%. The “% Purity (after challenge)” value ([3]; 80° C., 7 days) was 97.1%, the “% Purity (reference material)” value ([3]; 80° C., 7 days) was 99.8% and the “Purity after Photostability 3X ICH conditions” value ([3]; Photostability 3X ICH conditions, HPLC area %) was 93.2%. For the same compound, the “% Purity (after challenge)” value ([3]; Reference, 0 days) was 99.6%, the “% Purity (reference material)” value ([3]; Reference, 0 days) was 100% and the “% Purity (after challenge)” value [3, 10] was 99.6%. For the same compound, the “% Purity (reference material)” value [3, 10] was 100.7%, the “% Purity (after challenge)” value [3, 11] was 99.4% and the “% Purity (reference material)” value [3, 11] was 100.9%. The “% Purity (after challenge)” value [3, 12] was 99.5%, the “% Purity (reference material)” value [3, 12] was 100.2% and the “% Purity (after challenge)” value [3, 13] was 99.5%. For the same compound, the “% Purity (reference material)” value [3, 13] was 101.7%, the “Initial Purity” value ([3]; initial, before storage, HPLC area %) was 98.6% and the “mean plasma exposures produced by efficacious doses” value [4] was no less than 2 ng/mL. For the same compound, the “moisture content at equilibrium” value [5] was “approximately 4.5%”.
